Data: ChEMBL document CHEMBL1201862, “PubChem BioAssay data set” (2004)
Activity calls are given as the source filed them.

How the values were obtained:
[1] = target: Heat shock protein HSP 90-alpha (Homo sapiens, UniProt P07900); format: functional, organism-based
Melanocortin receptor 4 = Melanocortin receptor 4 (Homo sapiens, UniProt P32245); format: functional, cell-based;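 further: Cell-based assay with luminescence read-out, confirmatory dose-response testing for agonist activity of biased ligands at MC4R; human U2OS cells with tagged receptor and beta-arrestin; potency of agonists that increase receptor coupling to beta-arrestin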
[2] = target: T1, DNA repair protein RAD52 homolog (Homo sapiens, UniProt P43351); format: functional, biochemical
T1 sequence (P43351 whole entry): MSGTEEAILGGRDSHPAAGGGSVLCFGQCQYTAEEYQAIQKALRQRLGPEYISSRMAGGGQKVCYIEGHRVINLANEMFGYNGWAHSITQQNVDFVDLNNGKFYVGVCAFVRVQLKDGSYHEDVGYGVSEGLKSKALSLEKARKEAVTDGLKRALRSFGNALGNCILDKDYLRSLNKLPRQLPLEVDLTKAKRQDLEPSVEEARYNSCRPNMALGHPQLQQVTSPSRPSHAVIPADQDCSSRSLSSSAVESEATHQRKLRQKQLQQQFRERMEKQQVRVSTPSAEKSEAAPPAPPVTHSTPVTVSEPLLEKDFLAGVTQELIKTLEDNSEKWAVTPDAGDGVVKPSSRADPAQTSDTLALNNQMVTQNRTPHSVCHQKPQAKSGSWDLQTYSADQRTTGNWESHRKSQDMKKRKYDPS

[3] = reduction of Shn3 3'UTR-driven luciferase in osteoblasts – cell-based, Clone20 osteoblasts, firefly luciferase, cherry-picked, dose response (AID 624132); format: functional;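 further: firefly luciferase luminescence from reporter carrying the Shn3 3'UTR in osteoblasts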
[4] = target: ATP-binding cassette sub-family B member 6 (Homo sapiens, UniProt Q9NP58); experiment: concentration-dependent ABCB6 porphyrin transport blockade – K562-ABCB6 cells, flow cytometry, cherry pick 1, dose response (AID 623955); format: functional; settings: read-out: EC50_MICROM
INS1 = experiment: INS-1E survival protection against cytokine death – cell-based, luminescence, retest, dose response (AID 449756); format: functional; settings: Rattus norvegicus;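 further: cell death triggered by IL-1 beta plus TNF-alpha plus IFN-gamma mixture; protective hits raise ATP signal compared with cytokine alone wells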
[5] = loss of viability in HepG2 cells – cell-based, CellTiter-Glo, cherry-picked, cytotoxicity control for Shn3 inhibitor project, dose response (AID 624134); format: functional
[6] = target: T2, Replicative DNA helicase DnaB (Mycobacterium tuberculosis, UniProt P9WMR3); experiment: DnaB intein splicing inhibitors, dose response, biochemical, cell-free fluorescence (AID 449749); format: functional
T2 sequence (P9WMR3 whole entry): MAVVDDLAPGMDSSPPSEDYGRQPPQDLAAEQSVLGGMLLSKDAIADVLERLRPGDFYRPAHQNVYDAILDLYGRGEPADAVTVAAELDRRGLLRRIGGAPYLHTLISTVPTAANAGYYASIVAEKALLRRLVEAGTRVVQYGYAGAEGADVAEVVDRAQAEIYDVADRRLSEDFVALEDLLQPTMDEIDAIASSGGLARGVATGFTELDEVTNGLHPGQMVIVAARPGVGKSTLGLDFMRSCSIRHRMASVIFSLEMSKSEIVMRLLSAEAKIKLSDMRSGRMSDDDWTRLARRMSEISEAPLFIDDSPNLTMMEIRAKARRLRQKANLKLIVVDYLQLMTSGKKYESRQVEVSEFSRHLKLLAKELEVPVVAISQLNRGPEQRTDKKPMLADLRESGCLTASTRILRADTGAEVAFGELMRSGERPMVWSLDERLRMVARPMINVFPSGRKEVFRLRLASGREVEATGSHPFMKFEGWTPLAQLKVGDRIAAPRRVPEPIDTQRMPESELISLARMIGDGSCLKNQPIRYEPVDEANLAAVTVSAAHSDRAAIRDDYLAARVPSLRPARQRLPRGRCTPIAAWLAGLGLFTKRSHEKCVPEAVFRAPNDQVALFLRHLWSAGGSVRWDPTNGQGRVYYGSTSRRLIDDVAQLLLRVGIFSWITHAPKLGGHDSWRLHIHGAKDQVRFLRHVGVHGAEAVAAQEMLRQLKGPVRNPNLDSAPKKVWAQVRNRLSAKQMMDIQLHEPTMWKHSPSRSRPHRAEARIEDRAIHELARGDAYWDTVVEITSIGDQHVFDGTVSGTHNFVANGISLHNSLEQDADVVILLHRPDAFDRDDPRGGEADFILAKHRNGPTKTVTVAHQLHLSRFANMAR

Protein RecA = target: T3, Protein RecA (Mycobacterium tuberculosis, UniProt P9WHJ3); experiment: Fluorescence Cell-Free Homogeneous Dose Retest to Identify Inhibitors of RecA-Intein Splicing Activity. [Related pubchem assays (depositor defined):AID2097, AID2223, AID489010, AID492950]; format: functional
T3 sequence (P9WHJ3 whole entry): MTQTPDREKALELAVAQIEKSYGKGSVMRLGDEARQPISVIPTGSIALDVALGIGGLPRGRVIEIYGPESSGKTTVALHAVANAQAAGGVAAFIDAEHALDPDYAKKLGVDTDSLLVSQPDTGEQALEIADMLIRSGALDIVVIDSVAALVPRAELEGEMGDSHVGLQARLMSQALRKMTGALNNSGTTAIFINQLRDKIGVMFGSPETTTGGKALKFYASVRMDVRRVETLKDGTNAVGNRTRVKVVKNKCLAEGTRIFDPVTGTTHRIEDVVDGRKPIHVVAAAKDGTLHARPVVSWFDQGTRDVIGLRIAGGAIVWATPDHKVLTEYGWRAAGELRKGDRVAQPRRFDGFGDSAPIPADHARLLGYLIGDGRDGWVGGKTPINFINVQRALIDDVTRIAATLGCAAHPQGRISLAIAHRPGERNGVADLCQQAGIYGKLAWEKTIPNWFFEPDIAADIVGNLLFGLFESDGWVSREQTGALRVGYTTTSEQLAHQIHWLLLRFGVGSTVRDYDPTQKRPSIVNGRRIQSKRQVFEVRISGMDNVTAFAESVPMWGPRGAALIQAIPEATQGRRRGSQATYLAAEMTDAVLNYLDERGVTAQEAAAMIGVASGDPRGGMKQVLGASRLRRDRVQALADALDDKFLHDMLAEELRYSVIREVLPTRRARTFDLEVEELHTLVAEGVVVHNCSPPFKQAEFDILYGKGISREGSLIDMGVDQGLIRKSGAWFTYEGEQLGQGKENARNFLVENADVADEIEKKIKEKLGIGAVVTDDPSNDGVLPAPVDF

[7] = non-specific 3'UTR reporter inhibition in Clone20-Shn3RL – cell-based, Renilla luciferase, cherry-picked, counter-screen for Shn3 inhibitor project, dose response (AID 624133); format: functional
[8] = target: T4, ATP-dependent translocase ABCB1 (Homo sapiens, UniProt P08183); experiment: inhibition of BCRP-mediated JC-1 efflux – Ig-MXP3 cells, flow cytometry, set 2, dose response (AID 504566); format: functional; settings: read-out: EC50_MICROM_;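 further: flow cytometry median green fluorescence of retained JC-1 dye; potency of efflux pump inhibition measured as rising substrate retention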
H9c2 = experiment: cells; format: functional, cell-based; settings: Rattus norvegicus, H9c2, Myocardium;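 further: confirmatory concentration-response retest of ultra-high-throughput screening hits for modulation of myocardial damage; cell death induced by hydrogen peroxide oxidative stress; compound pretreatment for 60 min then peroxide exposure for 2 h; potency is for protecting the cells against peroxide damage rather than for killing them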
[9] = target: T4, ATP-dependent translocase ABCB1; experiment: P-gp JC-1 efflux blockade concentration-response – Jurkat-DNR cells, flow cytometry, set 2, dose response (AID 504569); format: functional; settings: read-out: EC50_MICROM_;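 further: potency of pump inhibitors that raise cellular JC-1 green fluorescence up to the nicardipine level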
[10] = target: Eukaryotic translation initiation factor 4E (Mus musculus, UniProt P63073); experiment: blockers of eIF4G binding by eIF4E – biochemical, TR-FRET, dose response (AID 855); format: functional;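 further: potency for disrupting eIF4E binding to eIF4GI seen as loss of FRET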
[11] = target: Tyrosine-protein phosphatase non-receptor type 5 (Homo sapiens, UniProt P54829); experiment: PTPN5 enzyme inhibition – biochemical, fluorescence intensity, uHTS hits, confirmation (AID 602372); format: functional; settings: read-out: IC50_Mean
[12] = target: T5, Tyrosine-protein phosphatase non-receptor type 22 (Homo sapiens, UniProt Q9Y2R2); experiment: lymphoid phosphatase LYP inhibitors – biochemical, selectivity assay for STEP inhibitor project, dose response (AID 624241); format: functional
T5 sequence (Q9Y2R2 whole entry): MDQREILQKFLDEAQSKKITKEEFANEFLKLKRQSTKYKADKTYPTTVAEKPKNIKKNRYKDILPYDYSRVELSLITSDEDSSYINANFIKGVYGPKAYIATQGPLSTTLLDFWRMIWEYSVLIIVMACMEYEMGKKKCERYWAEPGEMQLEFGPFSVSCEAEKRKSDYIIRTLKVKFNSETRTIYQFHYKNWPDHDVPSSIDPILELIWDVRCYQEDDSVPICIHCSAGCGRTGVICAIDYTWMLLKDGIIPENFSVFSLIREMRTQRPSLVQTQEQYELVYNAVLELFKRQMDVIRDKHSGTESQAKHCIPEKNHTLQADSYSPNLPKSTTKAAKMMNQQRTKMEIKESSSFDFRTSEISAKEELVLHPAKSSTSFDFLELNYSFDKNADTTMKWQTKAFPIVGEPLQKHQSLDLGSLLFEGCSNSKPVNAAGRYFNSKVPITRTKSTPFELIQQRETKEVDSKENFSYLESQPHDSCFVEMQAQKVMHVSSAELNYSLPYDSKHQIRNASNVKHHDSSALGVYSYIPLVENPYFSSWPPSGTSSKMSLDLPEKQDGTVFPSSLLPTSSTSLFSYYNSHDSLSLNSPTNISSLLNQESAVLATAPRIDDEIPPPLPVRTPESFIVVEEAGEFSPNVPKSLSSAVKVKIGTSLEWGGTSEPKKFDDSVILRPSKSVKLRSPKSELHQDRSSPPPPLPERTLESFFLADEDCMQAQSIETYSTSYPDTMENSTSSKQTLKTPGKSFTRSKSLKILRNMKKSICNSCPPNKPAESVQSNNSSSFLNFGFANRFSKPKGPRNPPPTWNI

[13] = target: Tyrosine-protein phosphatase non-receptor type 11 (Homo sapiens, UniProt Q06124); experiment: PTPN11 enzyme inhibitors – biochemical, selectivity assay for STEP inhibitor project, dose response (AID 602367); format: functional; settings: read-out: IC50_Mean
[14] = target: T6, Carboxy-terminal domain RNA polymerase II polypeptide A small phosphatase 1 (Homo sapiens, UniProt Q9GZU7); experiment: CTDSP1 inhibitors, concentration-response, biochemical, absorbance readout, ultra-high-throughput screen actives (AID 540297); format: functional
T6 sequence (Q9GZU7 whole entry): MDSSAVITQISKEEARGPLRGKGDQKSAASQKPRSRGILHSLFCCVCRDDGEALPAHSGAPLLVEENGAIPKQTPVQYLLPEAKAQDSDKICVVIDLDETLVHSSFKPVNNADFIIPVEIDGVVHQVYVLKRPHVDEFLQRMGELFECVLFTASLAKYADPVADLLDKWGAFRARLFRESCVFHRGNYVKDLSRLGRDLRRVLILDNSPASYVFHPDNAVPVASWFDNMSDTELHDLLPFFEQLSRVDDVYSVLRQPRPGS

[15] = target: Dual specificity protein phosphatase 3 (Homo sapiens, UniProt P51452); experiment: VHR phosphatase inhibition, dose response, selectivity assay for STEP inhibitor project, biochemical (AID 602374); format: functional; settings: read-out: IC50_Mean
[16] = mouse fibroblast viability loss – cell-based, cherry-pick samples, set 2, cytotoxicity control for T. cruzi growth inhibitor project, dose response (AID 651817); format: functional; settings: NIH3T3
[17] = target: Potassium voltage-gated channel subfamily KQT member 2 (Rattus norvegicus, UniProt O88943); experiment: blockers of KCNQ2 channel current – cell-based, automated electrophysiology, set II, rat KCNQ2, dose response (AID 588637); format: functional
[18] = general mammalian cell viability loss – activator set, cherry-pick, cytotoxicity control for miR-122 modulator project, dose response (AID 720690); format: functional, cell-based;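 further: HEK293T human cells scored for general mammalian cytotoxicity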
[19] = activation of miR-122 Renilla sensor silencing – cell-based, Huh7 psiCHECK-miR122, Renilla luciferase, cherry-picked, dose response (AID 651956); format: functional;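 further: huh7 hepatoma cells stably carrying a psiCHECK-2 miR-122 sensor plasmid; renilla luciferase signal reporting endogenous miR-122 activity after 48 h compound exposure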
[20] = target: T7, Mitochondrial peptide methionine sulfoxide reductase (Bos taurus, UniProt P54149); format: functional;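 further: absorbance read-out, biochemical high-throughput dose-response screen for MsrA inhibitors, confirmatory; recombinant bovine MsrA coupled to E. coli TrxB with NADPH and selenocystamine; potency is for inhibitors of MsrA activity on DMSO substrate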
T7 sequence (P54149 whole entry): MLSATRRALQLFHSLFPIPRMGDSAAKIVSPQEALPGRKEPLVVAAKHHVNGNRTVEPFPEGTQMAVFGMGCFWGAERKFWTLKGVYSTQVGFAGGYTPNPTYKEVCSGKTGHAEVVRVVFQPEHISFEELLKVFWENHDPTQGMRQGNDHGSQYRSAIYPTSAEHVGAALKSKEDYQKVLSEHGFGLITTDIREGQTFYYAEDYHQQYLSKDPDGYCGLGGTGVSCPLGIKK

Beta-lactamase [21] = target: Beta-lactamase (Salmonella choleraesuis (strain SC-B67), UniProt Q5J463); experiment: Epi-absorbance-based counterscreen for selective VIM-2 inhibitors: dose response biochemical high throughput screening assay to identify inhibitors of TEM-1 serine-beta-lactamase.
Beta-lactamase [22] = target: T8, Beta-lactamase (Pseudomonas aeruginosa, UniProt Q79MP6); experiment: inhibition of IMP-1 beta-lactamase activity – biochemical, epi-absorbance, selectivity assay for VIM-2 inhibitor project, dose response (AID 1920)
Beta-lactamase [23] = target: T8, Beta-lactamase; experiment: […] counterscreen for selective VIM-2 inhibitors: dose response biochemical high throughput screening assay to identify inhibitors of IMP-1 metallo-beta-lactamase.

T4 sequence (P08183 whole entry): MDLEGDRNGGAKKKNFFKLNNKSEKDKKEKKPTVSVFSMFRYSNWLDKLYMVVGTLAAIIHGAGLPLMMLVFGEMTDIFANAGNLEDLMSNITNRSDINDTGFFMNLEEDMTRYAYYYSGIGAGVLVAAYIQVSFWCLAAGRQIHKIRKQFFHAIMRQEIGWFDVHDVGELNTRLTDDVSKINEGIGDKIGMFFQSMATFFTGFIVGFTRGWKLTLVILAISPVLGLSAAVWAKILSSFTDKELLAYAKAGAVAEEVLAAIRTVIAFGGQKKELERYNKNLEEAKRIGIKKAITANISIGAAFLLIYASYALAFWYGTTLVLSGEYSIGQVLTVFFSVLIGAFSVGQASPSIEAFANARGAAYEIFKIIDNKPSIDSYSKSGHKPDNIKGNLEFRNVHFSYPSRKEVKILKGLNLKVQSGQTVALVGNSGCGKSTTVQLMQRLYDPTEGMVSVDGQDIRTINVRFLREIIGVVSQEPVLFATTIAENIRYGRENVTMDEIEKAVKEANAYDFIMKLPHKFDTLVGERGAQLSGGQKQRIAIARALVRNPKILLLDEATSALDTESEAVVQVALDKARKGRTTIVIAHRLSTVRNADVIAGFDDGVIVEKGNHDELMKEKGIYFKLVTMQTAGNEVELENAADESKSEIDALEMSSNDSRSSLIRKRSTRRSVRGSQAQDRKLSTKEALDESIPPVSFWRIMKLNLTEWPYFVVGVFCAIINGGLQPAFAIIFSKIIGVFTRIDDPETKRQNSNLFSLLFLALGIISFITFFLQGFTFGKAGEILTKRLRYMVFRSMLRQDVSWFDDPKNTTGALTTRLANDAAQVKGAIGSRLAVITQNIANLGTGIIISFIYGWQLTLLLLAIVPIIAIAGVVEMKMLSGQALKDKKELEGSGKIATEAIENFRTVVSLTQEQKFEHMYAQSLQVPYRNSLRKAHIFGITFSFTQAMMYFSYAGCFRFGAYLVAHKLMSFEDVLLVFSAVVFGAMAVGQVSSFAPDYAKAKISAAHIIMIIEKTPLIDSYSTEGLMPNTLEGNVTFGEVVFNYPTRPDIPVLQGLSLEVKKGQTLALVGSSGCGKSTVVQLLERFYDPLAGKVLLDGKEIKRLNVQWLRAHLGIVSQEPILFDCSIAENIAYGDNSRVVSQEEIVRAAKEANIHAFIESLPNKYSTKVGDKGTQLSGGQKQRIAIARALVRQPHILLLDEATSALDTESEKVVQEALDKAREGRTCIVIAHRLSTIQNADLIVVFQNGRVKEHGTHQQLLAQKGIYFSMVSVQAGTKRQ
T8 sequence (Q79MP6 whole entry): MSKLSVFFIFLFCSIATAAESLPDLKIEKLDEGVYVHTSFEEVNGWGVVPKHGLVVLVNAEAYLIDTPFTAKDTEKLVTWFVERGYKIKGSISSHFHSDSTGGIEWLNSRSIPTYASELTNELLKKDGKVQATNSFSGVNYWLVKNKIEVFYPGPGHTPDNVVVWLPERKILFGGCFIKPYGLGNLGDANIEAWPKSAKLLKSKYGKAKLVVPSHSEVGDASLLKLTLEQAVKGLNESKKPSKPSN
Beta-lactamase (Salmonella choleraesuis (strain SC-B67), UniProt Q5J463), sequence (Q5J463 whole entry): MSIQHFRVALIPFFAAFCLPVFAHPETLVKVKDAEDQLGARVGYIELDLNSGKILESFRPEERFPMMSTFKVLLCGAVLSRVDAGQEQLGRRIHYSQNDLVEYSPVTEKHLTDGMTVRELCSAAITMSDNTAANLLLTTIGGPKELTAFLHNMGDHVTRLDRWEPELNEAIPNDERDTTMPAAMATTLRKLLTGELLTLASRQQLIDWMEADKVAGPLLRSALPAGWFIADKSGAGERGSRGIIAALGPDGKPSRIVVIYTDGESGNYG
Potassium voltage-gated channel subfamily KQT member 2, sequence (O88943 whole entry): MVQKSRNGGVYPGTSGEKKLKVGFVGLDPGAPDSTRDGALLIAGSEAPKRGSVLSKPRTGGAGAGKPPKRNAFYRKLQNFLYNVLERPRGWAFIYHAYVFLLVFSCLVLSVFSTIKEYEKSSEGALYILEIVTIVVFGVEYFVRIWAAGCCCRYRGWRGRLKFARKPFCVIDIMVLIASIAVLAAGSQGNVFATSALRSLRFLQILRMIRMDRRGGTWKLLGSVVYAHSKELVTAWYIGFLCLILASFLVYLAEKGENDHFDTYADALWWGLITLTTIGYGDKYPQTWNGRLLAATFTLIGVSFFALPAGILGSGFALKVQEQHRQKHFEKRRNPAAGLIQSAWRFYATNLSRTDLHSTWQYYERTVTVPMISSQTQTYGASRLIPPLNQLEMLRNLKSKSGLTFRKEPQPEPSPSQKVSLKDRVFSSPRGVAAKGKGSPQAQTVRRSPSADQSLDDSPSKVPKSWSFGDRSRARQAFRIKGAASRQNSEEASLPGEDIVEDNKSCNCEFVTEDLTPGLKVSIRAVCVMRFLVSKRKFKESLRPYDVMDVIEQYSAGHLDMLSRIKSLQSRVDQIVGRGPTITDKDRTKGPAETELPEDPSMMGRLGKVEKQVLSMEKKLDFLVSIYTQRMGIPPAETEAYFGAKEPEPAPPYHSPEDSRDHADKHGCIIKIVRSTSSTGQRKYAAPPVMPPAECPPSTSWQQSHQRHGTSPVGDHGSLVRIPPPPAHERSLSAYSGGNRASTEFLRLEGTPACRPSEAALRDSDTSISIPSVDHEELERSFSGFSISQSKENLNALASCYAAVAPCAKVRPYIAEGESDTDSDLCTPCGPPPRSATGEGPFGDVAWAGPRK
Melanocortin receptor 4, sequence (P32245 whole entry): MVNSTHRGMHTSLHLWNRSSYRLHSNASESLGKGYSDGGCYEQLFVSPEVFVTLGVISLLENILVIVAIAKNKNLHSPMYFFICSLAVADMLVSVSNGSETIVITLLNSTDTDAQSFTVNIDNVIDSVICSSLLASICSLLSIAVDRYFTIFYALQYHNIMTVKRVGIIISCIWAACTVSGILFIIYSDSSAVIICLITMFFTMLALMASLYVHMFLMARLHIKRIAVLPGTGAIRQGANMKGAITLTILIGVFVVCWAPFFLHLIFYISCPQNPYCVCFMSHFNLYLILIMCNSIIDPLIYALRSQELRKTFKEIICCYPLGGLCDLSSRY
Dual specificity protein phosphatase 3, sequence (P51452 whole entry): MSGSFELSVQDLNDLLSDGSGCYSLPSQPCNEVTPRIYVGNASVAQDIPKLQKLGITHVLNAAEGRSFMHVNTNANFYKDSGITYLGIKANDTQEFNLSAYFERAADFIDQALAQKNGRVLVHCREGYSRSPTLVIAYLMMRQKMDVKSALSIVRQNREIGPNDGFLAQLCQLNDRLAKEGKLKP
Eukaryotic translation initiation factor 4E, sequence (P63073 whole entry): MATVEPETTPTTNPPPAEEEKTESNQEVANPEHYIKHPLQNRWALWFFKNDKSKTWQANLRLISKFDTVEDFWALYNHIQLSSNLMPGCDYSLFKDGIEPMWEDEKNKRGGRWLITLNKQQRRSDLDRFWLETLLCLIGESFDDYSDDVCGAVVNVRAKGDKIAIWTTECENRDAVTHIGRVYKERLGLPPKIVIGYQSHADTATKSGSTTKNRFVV
ATP-binding cassette sub-family B member 6, sequence (Q9NP58 whole entry): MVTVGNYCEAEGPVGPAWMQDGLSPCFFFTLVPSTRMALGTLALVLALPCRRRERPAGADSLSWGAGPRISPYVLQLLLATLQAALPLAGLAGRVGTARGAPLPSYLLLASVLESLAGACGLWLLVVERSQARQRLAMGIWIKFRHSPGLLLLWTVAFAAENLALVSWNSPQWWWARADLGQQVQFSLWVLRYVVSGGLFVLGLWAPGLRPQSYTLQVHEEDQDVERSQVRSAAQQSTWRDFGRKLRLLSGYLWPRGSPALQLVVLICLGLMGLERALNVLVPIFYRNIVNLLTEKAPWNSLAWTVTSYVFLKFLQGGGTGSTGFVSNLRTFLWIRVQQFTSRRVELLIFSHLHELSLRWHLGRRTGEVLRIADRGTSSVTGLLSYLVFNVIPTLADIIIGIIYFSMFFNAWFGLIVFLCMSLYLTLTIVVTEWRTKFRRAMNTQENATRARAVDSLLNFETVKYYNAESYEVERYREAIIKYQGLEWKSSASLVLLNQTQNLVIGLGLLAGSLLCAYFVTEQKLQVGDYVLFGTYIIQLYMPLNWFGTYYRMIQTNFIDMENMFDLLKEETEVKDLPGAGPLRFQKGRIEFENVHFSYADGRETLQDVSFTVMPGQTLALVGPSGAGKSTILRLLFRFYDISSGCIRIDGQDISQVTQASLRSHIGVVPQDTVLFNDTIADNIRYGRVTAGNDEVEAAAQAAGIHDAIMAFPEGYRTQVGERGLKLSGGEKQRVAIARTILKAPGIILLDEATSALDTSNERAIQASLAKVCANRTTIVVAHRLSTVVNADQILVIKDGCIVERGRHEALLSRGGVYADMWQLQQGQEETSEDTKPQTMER
Tyrosine-protein phosphatase non-receptor type 5, sequence (P54829 whole entry): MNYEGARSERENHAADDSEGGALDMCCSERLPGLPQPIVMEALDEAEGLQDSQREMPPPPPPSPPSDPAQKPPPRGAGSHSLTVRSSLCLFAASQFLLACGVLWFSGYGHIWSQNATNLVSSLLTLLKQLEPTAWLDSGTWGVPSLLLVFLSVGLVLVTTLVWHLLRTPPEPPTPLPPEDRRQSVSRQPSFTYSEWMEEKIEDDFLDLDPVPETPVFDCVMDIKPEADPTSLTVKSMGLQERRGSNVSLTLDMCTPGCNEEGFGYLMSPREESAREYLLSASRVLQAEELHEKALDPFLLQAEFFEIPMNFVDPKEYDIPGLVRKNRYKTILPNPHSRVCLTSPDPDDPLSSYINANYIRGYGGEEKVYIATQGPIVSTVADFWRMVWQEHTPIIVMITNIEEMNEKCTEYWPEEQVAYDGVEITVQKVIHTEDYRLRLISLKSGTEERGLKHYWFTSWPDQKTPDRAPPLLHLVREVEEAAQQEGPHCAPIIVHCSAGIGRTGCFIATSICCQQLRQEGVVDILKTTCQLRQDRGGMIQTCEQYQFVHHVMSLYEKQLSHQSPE

CCCCCCCCCCCCCCCC[n+]1cccc(C(=O)N(CC)CC)c1
AC50 [1]: 9.18 µM (active)
EC50 (Melanocortin receptor 4): > 89.2 µM (inactive)
AC50 [2]: 5.29 µM (active)

Cc1cccc(NC(=O)c2nc(S(=O)(=O)Cc3ccccc3)ncc2Cl)c1
AC50 [3]: 2.66 µM (active)
AC50 [1]: 2.42 µM (active)
EC50 [4]: 21.5 µM (active)
AC50 (INS1): 10.3 µM (active)
AC50 [5]: 17.5 µM (active)
AC50 [6]: 21.9 µM (active)
EC50 (Protein RecA): 10.6 µM (active)
AC50 [7]: 6.26 µM (active)

COc1ccccc1-c1cc2nc(-c3ccccc3)cc(N3CCN(C(=O)c4ccoc4)CC3)n2n1
EC50 [8]: 0.34 µM (active)
IC50 (H9c2): > 79 µM (inactive)
EC50 [9]: 2.7 µM (active)

O=C(O)c1ccc2c(c1)C(=O)N(c1cccc(-c3nc4ccccc4s3)c1)C2=O
IC50 [10]: 50 µM (inactive)
IC50 [11]: 8.03 µM (active)
IC50 [12]: 35.6 µM (inactive)
IC50 [13]: 6.24 µM (active)
IC50 [14]: 7.07 µM (active)
IC50 [15]: 6.02 µM (active)

C[C@H]1CN([C@@H](C)CO)C(=O)c2cccc(NC(=O)Nc3ccc(C(F)(F)F)cc3)c2O[C@H]1CN(C)Cc1ccc(Cl)c(Cl)c1
AC50 [16]: 13.6 µM (active)

CN1/C(=C\C(=S)NC(=O)c2cccc(Br)c2)C(C)(C)c2ccccc21
AC50 (INS1): 3.96 µM (active)
IC50 [17]: 4.27 µM (active)

C[C@H]1CCCCO[C@H](CN(C)Cc2ccc3c(c2)OCO3)[C@@H](C)CN([C@@H](C)CO)C(=O)c2cc(NC(=O)Nc3cccc4ccccc34)ccc2O1
AC50 [18]: 10 µM (active)
AC50 [19]: 10 µM (active)

Cc1cc(C(=O)N/N=C/C=C/c2ccc([N+](=O)[O-])cc2)[nH]n1
IC50 [20]: 155 µM (inactive)

COc1ccc(-c2n[nH]c(=S)n2-c2ccc3c(c2)OCCO3)cc1OC
IC50 (Beta-lactamase [21]): > 59.6 µM (inactive)
IC50 (Beta-lactamase [22]): > 59.6 µM (inactive)
IC50 (Beta-lactamase [23]): > 59.6 µM (inactive)
